The term pIC50 denotes the IC50 on a negative log10 scale, so that one unit is a factor of ten. Read a high pIC50 as a small IC50.

The structures appear in SMILES notation. pIC50: −log10 of the molar value.

The assay has as its target Acetylcholinesterase (Homo sapiens, UniProt P22303). Kind of assay: Inhibition of AChE (unknown origin) using acetylthiocholine iodide as substrate preincubated for 30 mins followed by substrate addition and measured after 3 mins by DTNB reagent based Ellman's method.

Acetylcholinesterase, sequence (P22303 whole entry): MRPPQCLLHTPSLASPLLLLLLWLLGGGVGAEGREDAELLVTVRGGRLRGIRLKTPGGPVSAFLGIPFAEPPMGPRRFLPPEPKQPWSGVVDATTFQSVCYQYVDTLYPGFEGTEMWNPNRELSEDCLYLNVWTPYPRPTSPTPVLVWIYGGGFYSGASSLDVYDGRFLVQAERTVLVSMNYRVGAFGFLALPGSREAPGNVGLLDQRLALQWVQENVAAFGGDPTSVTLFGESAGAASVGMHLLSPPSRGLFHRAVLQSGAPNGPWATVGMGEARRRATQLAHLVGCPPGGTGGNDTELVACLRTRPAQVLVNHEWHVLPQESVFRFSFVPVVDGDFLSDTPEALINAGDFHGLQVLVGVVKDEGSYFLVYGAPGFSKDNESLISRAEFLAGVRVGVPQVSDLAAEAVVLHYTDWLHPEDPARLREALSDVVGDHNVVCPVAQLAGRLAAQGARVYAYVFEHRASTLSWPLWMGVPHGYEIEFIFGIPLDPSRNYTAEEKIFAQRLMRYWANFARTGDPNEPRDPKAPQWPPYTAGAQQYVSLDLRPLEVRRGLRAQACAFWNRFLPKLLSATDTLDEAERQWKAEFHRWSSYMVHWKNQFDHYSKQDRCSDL

`COc1ccc2c3c1O[C@H]1C[C@@H](O)C=C[C@@]31CCN(C=O)C2` gave a pIC50 of 4.01. `COc1ccc2c3c1O[C@H]1C[C@@H](O)C=C[C@@]31CCN(C(C)=O)C2`: the pIC50 was 5.01.

On to `C=CCN1CC[C@@]23C=C[C@H](O)C[C@@H]2Oc2c(OC)ccc(c23)C1` [N-ALLYLNORGALANTHAMINE], for which the pIC50 is 6.74. Compared with the last compound, the pIC50 is 1.73 log units higher.

Values taken from ChEMBL document CHEMBL6092139, “AChE inhibitory activity of N-substituted natural galanthamine derivatives” (Bioorg Med Chem Lett, 2024).
